In publication PMC4514850, “A Novel TGR5 Activator WB403 Promotes GLP-1 Secretion and Preserves Pancreatic β-Cells in Type 2 Diabetic Mice” (PLoS ONE, 2015):

Experiments:
[1] = pharmacokinetic test in Sprague-Dawley rats; assay type: in vivo; settings: male, plasma, rat
Protocol: Adult male Sprague-Dawley rats fasted for 12 h were randomized into two groups (n = 5) for intravenous injection (i.v.) or oral administration (p.o.). Blood samples were collected from the orbital plexus at 10, 20, 30, 40, 60, 90, 120, 150, 180, 240, 360 and 480 min after administration. The concentration of WB403 in plasma was determined by an Aligent Technologies 1260 series HPLC system with a DAD detector. The oral bioavailability (F%) was calculated as F (%) = AUC0-∞(p.o.) / AUC0-∞(i.v.) × Dose (i.v.) / Dose (p.o.).

MIN6 cells = assay: active GLP-1 secretion in MIN6 cells; assay type: cell-based, mouse; settings: Fig 1H
Protocol: Endocrine differentiation was induced by seeding NCI-H716 cells in plates coated with Matrigel (Becton Dickinson). Cells were washed with RPMI-1640 medium without FBS and incubated in the same medium containing indicated compounds at 10 μmol/l. The condition medium was collected after 30 min. GLP-1 secretion in MIN6 or primary enterocytes was conducted similarly. To isolate primary enterocytes, ileum or colon was cut into 2 cm length, rinsed by PBS (pH7.2∼7.4) before dispersed in 10 mmol/l EDTA/PBS (pH7.4) for 15 min at room temperature, followed by pipetting up and down. Enterocytes were collected by filtration through a 70 μm cell strainer. To study the effect of WB403 on GLP-1 secretion in vivo, mice in group of three were fasted overnight and orally received 0, 50, 100 mg/kg of WB403 dispersed in 0.5% CMC with a DPP-4 inhibitor (5 mg/kg). There were 5 animals in each group. 2 g/kg glucose was administrated 30 min later and blood was collected 10 min after glucose challenge.
The GLP-1 (active) ELISA kit was purchased from Millipore, and insulin ELISA kit was from Mercodia. For quantitative determination of cAMP, a competitive enzyme immunoassay kit from R&D system was used. All immunoassays were performed according to manufacturers’ instructions.

db/db mice [2] = assay: 4-week treatment of db/db mice; assay type: in vivo
Protocol: (§1) Five-week old male ICR mice and db/db (C57BL BKS cg-M+/+ lepr-/-) mice were purchased from Shanghai SLAC Laboratory Animal Co., Ltd. (Shanghai, China). Mice were housed 4–5 per cage and allowed access to normal chow diet and autoclaved water freely. They were fed at a constant room temperature (25°C) with a 12-h light (7:00 AM)/dark (7:00 PM) cycle. All the mice were monitored at least daily, and no adverse events were observed. In general, the db/db mice show a high food intake at 4-week old and become obese and develop type 2 diabetes at 8-week age. Postprandial 2 h blood glucose was assessed and mice with the similar degree of hyperglycemia and body weight were randomized into different groups in order to get a similar average PBG in each group.
(§2) Diabetic mice in group of four were treated by gavage with vehicle (0.5% carboxymethylcellulose, CMC, Sigma), WB403 50, 100 mg/kg or sitagliptin at 100 mg/kg daily for 4 weeks in db/db mice (n = 5 with chow diet), and 8 weeks in HFD/STZ mice (n = 8 with HFD, additional normal mice group with chow diet). During the entire dosing period, body weight, food intake and water intake were monitored three times per week, while FBG and PBG were measured weekly. Overnight fasted mice received an oral glucose challenge at 2 g/kg and postprandial 2 h blood glucose was measured. Animals were treated and assessed in the order of the vehicle, WB403 50, 100 mg/kg and sitagliptin 100 mg/kg group.
Fig 3 Effects of WB403 treatment in db/db mice. (A, B) FBG and PBG measured every week during the 4-week treatment period. (C, D) Serum levels of HbA1c, measured at the end of intervention by Adicon Clinical Laboratories (Shanghai, China) using an immunoturbidimetric assay on Beckman AU680 biochemical analyzer. (E) Average daily food intake per mouse during the treatment period. Data was collected three times per week. (F) Average daily water intake per mouse. (G) Body weight from different groups of mice. (H) Serum levels of insulin were measured at the end of intervention. Values are mean ± SEM (n = 5). *p<0.05, **p<0.01, ***p<0.001 vs. vehicle group.

HFD/STZ mice = assay: 8-week treatment of HFD/STZ mice; assay type: in vivo
Protocol: For generation of nongenetic mice model of type 2 diabetes, ICR mice were fed with high fat diet (HFD, with 60% fat, Research Diets) for three weeks, then fasted for 5 h before receiving a single dose of streptozotocin (STZ, Sigma) intraperitoneally (ip) at 80 mg/kg to induce partial insulin deficiency. […] Diabetes was assessed using conventional criteria. Mice with similar degree of hyperglycemia and body weight were randomized into various groups in order to get a similar average PBG in each group.
as §2
Fig 4 WB403 improved hyperglycemia of HFD/STZ mice. Mice were treated with different concentration of WB403, vehicle or sitagliptin. FBG (A) and PBG (B) were measured every week during the 8-week treatment period. (C, D) HbA1c levels in serum. Values are mean ± SEM (n = 8). *p<0.05, **p<0.01, ***p<0.001 vs. vehicle group.

db/db mice [3] = assay: oral glucose tolerance test in db/db mice; assay type: in vivo; settings: 2 g/kg glucose, oral 50, 100 mg/kg 30 min before load
Protocol: as §1
Mice were fasted overnight (14 h) before glucose tolerance tests. Normal mice received a 4 g/kg glucose challenge and for diabetic mice it’s 2 g/kg. WB403 at 50, 100 mg/kg, or sitagliptin at 100 mg/kg were administrated orally 30 min prior to glucose load (n = 10). For vehicle group, 0.5% CMC was administrated. Blood glucose levels were measured from tail bleeds with a glucometer (Roche, Accu-Chek Performa) at specified time points. Animals were treated and assessed in the order of the vehicle, WB403 50, 100 mg/kg and sitagliptin 100 mg/kg group.
Fig 2 Effects of WB403 on glucose tolerance during OGTT in normal and diabetic mice. […]

[4] = iv, i.v. 40 mg/kg, mean ± SEM, n = 5
[5] = po, p.o. 40 mg/kg, mean ± SEM, n = 5
[6] = db/db mice, 50, 100 mg/kg daily by gavage, after one week
[7] = db/db mice, end of 4-week treatment
[8] = HFD/STZ mice, 50, 100 mg/kg daily, from first week through 8-week treatment

`CCc1cc(-c2nc(C)c(COCc3ccc(Br)cc3)s2)ccn1` [WB403, 4-(5-((4-bromobenzyloxy)-methyl)-4-methylthiazol-2-yl)-2-ethylpyridine] gave an AUC(0-inf) [1, 4] of 26900 ng·h/mL, an AUC(0-t) [1, 4] of 25000 ng·h/mL and a C0 [1, 4] of 25700 ± 4600 ng/mL. The half-life [1, 4] was 2.77 ± 0.43 h, the bioavailability ([1]; oral, p.o. 40 mg/kg vs i.v. 40 mg/kg, from AUC0-∞) was 12% and the AUC(0-inf) [1, 5] was 3220 ng·h/mL. For the same compound, the AUC(0-t) [1, 5] was 2280 ng·h/mL, the Cmax [1, 5] was 980 ± 160 ng/mL and the Tmax [1, 5] was 1.4 h. The half-life [1, 5] was 2.94 ± 1.08 h, the “GLP-1 stimulation in MIN6 cells” value (MIN6 cells) was “GLP-1 stimulation effect of WB403 was confirmed” and the body weight (db/db mice [2]; db/db mice, 4-week treatment) was “did not vary significantly”. The food intake (db/db mice [2]; db/db mice, 4-week treatment) was “did not vary significantly”, the water intake (db/db mice [2]; db/db mice, 4-week treatment) was “decreased” and the FBG vs vehicle (db/db mice [2]; [6]) was “significantly decreased”. The PBG vs vehicle (db/db mice [2]; [6]) was “significantly decreased”, the “HbA1c levels vs vehicle” value (db/db mice [2]; [7]) was “significantly lower” and the serum insulin levels (db/db mice [2]; [7]) was “higher insulin levels”. For the same compound, the “serum HbA1c levels vs vehicle” value (HFD/STZ mice; HFD/STZ mice, 8-week treatment) was “decreased significantly”, the FBG vs vehicle (HFD/STZ mice; [8]) was “significantly decreased” and the PBG vs vehicle (HFD/STZ mice; [8]) was “significantly decreased”. For the same compound, the “blood glucose tolerance (OGTT) vs vehicle” value (db/db mice [3]) was “The same results”.
